{"source": "patent US20140308261A1", "about": "“HLA-DR7 HY epitope and method for treating leukaemia” (Etablissement Français du Sang, priority 2011, published 2014)", "system": "CD4^+ T-lymphocytes", "assay": "Cytokine mRNA expression profile after stimulation of CD4+ T-lymphocytes with short peptides from QR-40 pulsed on HLA-DR7 EBV cells", "assay_type": "cell-based, human", "excerpt": "The total RNA of the clones or cell lines was isolated from 1×10^6 cells by using the Rnagent kit (Promega, Madison, Wis., United States). The total RNA was converted to single stranded cDNA by using an oligo (dT) primer (Amersham Pharmacia Biotech, Orsay, France) and the reverse transcriptase of the avian myeloblastosis virus, in conformance with the manufacturer's specifications (Promega).\nHY-specific CD4^+ T-lymphocytes were stimulated, each with […] EBV-B LCL transduced with the HY gene. The proliferation and production of IFN-γ were measured by the incorporation of ^3H-[methyl-thymidine] on day 3, and ELISA on day 1. To map the precise T-lymphocyte epitope restricted to the MHC class II, the inventors synthesized several long peptides with a potential bond with DRB1*0701 encoded in the RPS4Y regions which are different from RPS4X, based on several databases for MHC peptide binding, such as SYFPEITHI, Net-MHC, Propred and HotSpot Hunter. These peptides were tested at various concentrations: from 100 μM to 10 nM, using […] EBV-B-LCLs that express the HLA-DRB1*0701 molecule in the form of APC. The short peptide in question was identified using a series of peptides of 15 amino acids, also identified from these databases, and which are present in the long peptide which induces a positive response.\nThe inventors were therefore able to identify TGKIINFIKFDTGNL (SEQ ID NO: 1) as the HY peptide epitope recognized by the CD4^+ T-lymphocytes (FIG. 6). […] It is interesting to note that the cloned T-lymphocytes presented the same cytokine profile as the T-lymphocyte cell line.", "key": {"[1]": {"settings": "female HLA-DR7 EBV cells pulsed with peptide"}}}
{"sequence": "GKIINFIKFDTGNLCMV (Peptide GV17) [short peptide from peptide QR-40]", "values": [{"measurement": "FoxP3/CD3ε mRNA ratio", "setting": "peptide 1 μM", "result": 0.12}, {"measurement": "IFNγ/CD3ε mRNA ratio", "setting": "peptide 1 μM", "result": 0.12}, {"measurement": "IL2/CD3ε mRNA ratio", "setting": "peptide 1 μM", "result": 0.02}, {"measurement": "FoxP3/CD3ε mRNA ratio", "setting": "peptide 10 μM", "result": 0.27}, {"measurement": "IFNγ/CD3ε mRNA ratio", "setting": "peptide 10 μM", "result": 0.82}, {"measurement": "IL2/CD3ε mRNA ratio", "setting": "peptide 10 μM", "result": 0.02}]}
{"sequence": "TGKIINFIKFDTGNL (peptide TL15) [HY epitopic 15-mer peptide from RPS4Y presented by HLA-DR7]", "values": [{"measurement": "stimulation of the CD4+ T-lymphocytes by 15-mer peptides in QR-40 (in words)", "setting": "Table 9", "result": "stimulated the cells"}, {"measurement": "FoxP3 mRNA response (in words)", "setting": "at 1 μM", "result": "highest FoxP3 mRNA response"}, {"measurement": "IFNγ mRNA induction (in words)", "setting": "[1]", "result": "specific IFNγ induction"}, {"measurement": "IL-2 mRNA expression (in words)", "setting": "[1]", "result": "low IL-2 mRNA expression"}, {"measurement": "FoxP3/CD3ε mRNA ratio", "setting": "peptide 1 μM", "result": 0.42}, {"measurement": "IFNγ/CD3ε mRNA ratio", "setting": "peptide 1 μM", "result": 9.91}, {"measurement": "IL2/CD3ε mRNA ratio", "setting": "peptide 1 μM", "result": 0.06}, {"measurement": "FoxP3/CD3ε mRNA ratio", "setting": "peptide 10 μM", "result": 0.44}, {"measurement": "IFNγ/CD3ε mRNA ratio", "setting": "peptide 10 μM", "result": 12.63}, {"measurement": "IL2/CD3ε mRNA ratio", "setting": "peptide 10 μM", "result": 0.23}]}
{"sequence": "TGNLCMVIGGANLGRVG (Peptide TG17-1) [short peptide from peptide QR-40]", "values": [{"measurement": "FoxP3/CD3ε mRNA ratio", "setting": "peptide 1 μM", "result": 0.12}, {"measurement": "IFNγ/CD3ε mRNA ratio", "setting": "peptide 1 μM", "result": 0.11}, {"measurement": "IL2/CD3ε mRNA ratio", "setting": "peptide 1 μM", "result": 0.006}, {"measurement": "FoxP3/CD3ε mRNA ratio", "setting": "peptide 10 μM", "result": 0.32}, {"measurement": "IFNγ/CD3ε mRNA ratio", "setting": "peptide 10 μM", "result": 0.11}, {"measurement": "IL2/CD3ε mRNA ratio", "setting": "peptide 10 μM", "result": 0.02}]}
{"sequence": "TGNVCMVIAGANLGRVG (Peptide TG17-2) [short peptide tested with the QR-40 peptides]", "values": [{"measurement": "FoxP3/CD3ε mRNA ratio", "setting": "peptide 1 μM", "result": 0.23}, {"measurement": "IFNγ/CD3ε mRNA ratio", "setting": "peptide 1 μM", "result": 0.009}, {"measurement": "IL2/CD3ε mRNA ratio", "setting": "peptide 1 μM", "result": 0.0047}, {"measurement": "FoxP3/CD3ε mRNA ratio", "setting": "peptide 10 μM", "result": 0.3}, {"measurement": "IFNγ/CD3ε mRNA ratio", "setting": "peptide 10 μM", "result": 0.5}, {"measurement": "IL2/CD3ε mRNA ratio", "setting": "peptide 10 μM", "result": 0.01}]}
